Laboratory results from US20140357487A1, “PLANTS HAVING INCREASED TOLERANCE TO HERBICIDES” (BASF SE, priority 2011, published 2014).

What was measured:
[1] = system: transgenic Arabidopsis plants overexpressing Synechocystis HPPD (Seq ID: 20); test: Arabidopsis growth inhibition in 48-well plates, line overexpressing Synechocystis HPPD; type: in vivo, Arabidopsis thaliana; conditions: Synechocystis (Seq ID: 20) overexpression line; plant growth IC50 of transgenic divided by that of wildtype plants
Text: Various methods for the production of stably transformed plants are well known in the art. Coumarone-derivative herbicide tolerant soybean (Glycine max) or corn (Zea mays) plants can be produced by a method described by Olhoft et al. (US patent 2009/0049567). Briefly, HPPD or HST encoding polynucleotides are cloned into a binary vector using standard cloning techniques as described by Sambrook et al. (Molecular cloning (2001) Cold Spring Harbor Laboratory Press). The final vector construct contains an HPPD or HST encoding sequence flanked by a promoter sequence (e.g. the ubiquitin promoter (PcUbi) sequence) and a terminator sequence (e.g. the nopaline synthase terminator (NOS) sequence) and a resistance marker gene cassette (e.g. AHAS) (FIG. 2). Optionally, the HPPD or HST gene can provide the means of selection. Agrobacterium-mediated transformation is used to introduce the DNA into soybean's axillary meristem cells at the primary node of seedling explants. After inoculation and co-cultivation with Agrobacteria, the explants are transferred to shoot induction medium without selection for one week. […]
Depending on the species, the plants are kept at 10-25° C. or 20-35° C. […] During this time, the plants are tended and their response to the individual treatments is evaluated. […] Tolerance to coumarone-derivative herbicides can also be assessed in Arabidopsis. […]

Chlamydomonas HPPD1 = test: HPPD activity assay, Chlamydomonas HPPD1; type: biochemical, Chlamydomonas reinhardtii; conditions: normalized on Arabidopsis wild-type HPPD
Description: (§1) HPPD produces homogentisic acid and CO2 from 4-hydroxyphenylpyruvate (4-HPP) and O2. The activity assay for HPPD is based on the analysis of homogentisic acid by reversed phase HPLC.
(§2) The assay mixture can contain 150 mM potassium phosphate buffer pH 7.0, 50 mM L-ascorbic acid, 1 μM FeSO4 and 7 μg of purified enzyme in a total volume of 1 ml.
Inhibitors are dissolved in DMSO (dimethylsulfoxide) to a concentration of 20 mM or 0.5 mM, respectively. From this stock solution serial five-fold dilutions are prepared in DMSO, which are used in the assay. The respective inhibitor solution accounts for 1% of the assay volume. Thus, final inhibitor concentrations range from 200 μM to 2.5 nM or from 5 μM to 63 pM, respectively. After a preincubation of 30 min the reaction is started by adding 4-HPP to a final concentration of 0.1 mM. The reaction is allowed to proceed for 120 min at room temperature. The reaction is stopped by addition of 100 μl of 4.5 M phosphoric acid.
Activities are normalized by setting the uninhibited enzyme activity to 100%. IC50 values are calculated using non-linear regression.
The assay mixture can contain 150 mM potassium phosphate buffer pH 7.0, 50 mM L-ascorbic acid, 100 μM Catalase (Sigma-Aldrich), 1 μM FeSO4 and 0.2 units of purified HPPD enzyme in a total volume of 505 μl. […]
(§3) Inhibitors are dissolved in DMSO (dimethylsulfoxide) to a concentration of 0.5 mM. […] IC50 values are calculated using non-linear regression.
Using methods which are described in the above examples or well known in the art, purified, recombinant wildtype HPPD enzymes are characterized with respect to their kinetic properties and sensitivity towards HPPD inhibiting herbicides. Apparent michaelis constants (Km) and maximal reaction velocities (Vmax) are calculated by non-linear regression with the software GraphPad Prism 5 (GraphPad Software, La Jolla, USA) using a substrate inhibition model. […] Weighted means (by standard error) of Km and […] values are calculated from at least three independent experiments. […]

Kordia HPPD = test: HPPD activity assay, Kordia HPPD; type: biochemical; conditions: normalized on Arabidopsis wild-type HPPD
Description: as §1, §2
Inhibitors are dissolved in DMSO (dimethylsulfoxide) to a concentration of 20 mM or 0.5 mM, respectively. From this stock solution serial five-fold dilutions are prepared in DMSO, which are used in the assay. The respective inhibitor solution accounts for 1% of the assay volume. […]
Activities are normalized by setting the uninhibited enzyme activity to 100%. IC50 values are calculated using non-linear regression. […]
as §3
Using methods which are described in the above examples or well known in the art, purified, recombinant wildtype HPPD enzymes are characterized with respect to their kinetic properties and sensitivity towards HPPD inhibiting herbicides. Apparent michaelis constants (Km) and maximal reaction velocities (Vmax) are calculated by non-linear regression with the software GraphPad Prism 5 (GraphPad Software, La Jolla, USA) using a substrate inhibition model. […]

Row | Compound | Tolerance factor [1] | Normalized tolerance index TI (Chlamydomonas HPPD1) | Normalized tolerance index TI (Kordia HPPD)
1 | CC1(C)c2cccnc2C(O)=C(c2ccc(Cl)nc2Cl)S1(=O)=O [Inhibitor 2, 7-(2,6-dichloro-3-pyridyl)-5,5-dimethyl-6,6-dioxo-thiopyrano[4,3-b]pyridin-8-ol] | 1 | – | –
2 | COCCOCc1c(Cl)ccc(C2=C(O)c3ncccc3C(C)(C)S2(=O)=O)c1Cl [Inhibitor 3, 7-[2,4-dichloro-3-(2-methoxyethoxymethyl)phenyl]-5,5-dimethyl-6,6-dioxo-thiopyrano[4,3-b]pyridin-8-ol] | – | 0.1 | 0.7
3 | CC1=NOC(c2c(Cl)ccc(C3=C(O)c4ncccc4C(C)(C)S3(=O)=O)c2Cl)C1 (stereo not drawn) [Inhibitor 1, 7-[2,4-dichloro-3-(3-methyl-4,5-dihydroisoxazol-5-yl)phenyl]-5,5-dimethyl-6,6-dioxo-thiopyrano[4,3-b]pyridin-8-ol] | 1 | 2.1 | 22
